Measurements: ChEMBL document CHEMBL1201862, “PubChem BioAssay data set” (2004)
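Each compound was tested at five concentrations against cells in 96-well plates for 48 hours. At the GI50, growth is halved.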 Calls of active or inactive are those of the source. Cut-off read from the data, not from the text of the source: active = GI50 up to about 1.1 µM and inactive = higher.

Key:
Assay in all cases: NCI anticancer screen, dose series, 48 h
[1] = test system: DU-145
[2] = test system: HCT-116
[3] = test system: HT-29
[4] = test system: Hs-578T
[5] = test system: MCF7
[6] = test system: Malme-3M
[7] = test system: NCI-H23
[8] = test system: NCI-H460
[9] = test system: SF-539
[10] = test system: SK-OV-3
[11] = test system: SR
[12] = test system: UACC-257
[13] = test system: UACC-62
[14] = test system: ACHN
[15] = test system: HCC 2998
[16] = test system: HOP-92
[17] = test system: NCI-H522
[18] = test system: OVCAR-5
[19] = test system: RXF 393

Row | Structure (SMILES) | GI50 [1] | GI50 [2] | GI50 [3] | GI50 [4] | GI50 [5] | GI50 [6] | GI50 [7] | GI50 [8] | GI50 [9] | GI50 [10] | GI50 [11] | GI50 [12] | GI50 [13] | GI50 [14] | GI50 [15] | GI50 [16] | GI50 [17] | GI50 [18] | GI50 [19]
1 | O=C1NI(C#Cc2ccccc2)c2ccccc21 | > 100 µM (inactive) | > 100 µM (inactive) | > 100 µM (inactive) | > 100 µM (inactive) | 22.2 µM (inactive) | > 100 µM (inactive) | > 100 µM (inactive) | > 100 µM (inactive) | > 100 µM (inactive) | 1.32 µM (inactive) | > 100 µM (inactive) | > 100 µM (inactive) | > 100 µM (inactive) |  |  |  |  |  | 
2 | C[C@@H](c1ccccc1)n1c(N)c(-c2ccccn2)c2ccc([N+](=O)[O-])cc2c1=O | 31.8 µM (inactive) | 79.4 µM (inactive) | > 100 µM (inactive) | 26.9 µM (inactive) |  |  | 54.6 µM (inactive) | 43.1 µM (inactive) |  |  | 32.6 µM (inactive) | 22.2 µM (inactive) | > 100 µM (inactive) | 56.9 µM (inactive) | > 100 µM (inactive) | 33.3 µM (inactive) | 48.2 µM (inactive) |  | 
3 | c1ccc2c(c1)N[C@@H]1c3[nH]c4ccccc4c3CC[C@H]21 | 16.9 µM (inactive) | 14.7 µM (inactive) | 15.6 µM (inactive) | 10.2 µM (inactive) |  | 5.13 µM (inactive) | 15.8 µM (inactive) | 16.8 µM (inactive) | 16.6 µM (inactive) | 14.6 µM (inactive) |  | 26.9 µM (inactive) | 17.6 µM (inactive) | 21.4 µM (inactive) |  | 14.4 µM (inactive) | 11.6 µM (inactive) | 13.2 µM (inactive) | 17.9 µM (inactive)
4 | COC(=O)C1(NC(=O)C(Cc2ccccc2)N(C(=O)OC(C)(C)C)C(=O)OC(C)(C)C)CCCC1 (centres undefined) | > 100 µM (inactive) | 55.7 µM (inactive) |  | > 100 µM (inactive) | 27.5 µM (inactive) |  | 30.5 µM (inactive) | 46.1 µM (inactive) | > 100 µM (inactive) | > 100 µM (inactive) | > 10 µM (inactive) |  | 20.1 µM (inactive) | > 10 µM (inactive) | 19.9 µM (inactive) | 59.2 µM (inactive) |  | 58.6 µM (inactive) | 
5 | COc1ccc2c(c1)/C(=C\c1c(Cl)nc3n1CCS3)C(=O)N2 | 11.8 µM (inactive) | 3.73 µM (inactive) | 3.25 µM (inactive) | 11.2 µM (inactive) | 4.42 µM (inactive) | 11.2 µM (inactive) | 11.2 µM (inactive) | 3.71 µM (inactive) | 4.65 µM (inactive) | 13.1 µM (inactive) |  | 5.48 µM (inactive) | 4 µM (inactive) | 11 µM (inactive) | 2.74 µM (inactive) | 46.5 µM (inactive) | 3.73 µM (inactive) | 13.5 µM (inactive) | 2.13 µM (inactive)
6 | NC(=S)N/N=C1\CCCCC1C(O)(C(F)(F)Cl)C(F)(F)Cl (centres undefined) | > 10 µM (inactive) | > 10 µM (inactive) | > 10 µM (inactive) | > 10 µM (inactive) | > 10 µM (inactive) | > 10 µM (inactive) | > 10 µM (inactive) | > 10 µM (inactive) | > 10 µM (inactive) | > 10 µM (inactive) |  | > 10 µM (inactive) | > 10 µM (inactive) | > 10 µM (inactive) | > 10 µM (inactive) | > 10 µM (inactive) | > 10 µM (inactive) | > 10 µM (inactive) | > 10 µM (inactive)
7 | CCOC(=O)CO/N=C1/C(=C2/C(=O)Nc3ccccc32)Nc2ccccc21 | > 100 µM (inactive) | 5.12 µM (inactive) | > 100 µM (inactive) | 36.2 µM (inactive) | 50.1 µM (inactive) | > 100 µM (inactive) | 17 µM (inactive) | > 100 µM (inactive) | 41.1 µM (inactive) | 13.6 µM (inactive) |  | > 100 µM (inactive) | 48.6 µM (inactive) | 67 µM (inactive) | > 100 µM (inactive) | 16.9 µM (inactive) | > 100 µM (inactive) | > 100 µM (inactive) | 7.82 µM (inactive)
8 | CCCCCCCCCCCCC/C=C/[C@@H](O)[C@H](COC1OC(CO)C(OC2OC(CO)C(O)C(OC3(C(=O)O)CC(O)C(NC(C)=O)C(C(O)C(O)CO)O3)C2O)C(O)C1O)N=[N+]=[N-] (some centres undefined) | > 100 µM (inactive) | 70.1 µM (inactive) | 22 µM (inactive) | 55.7 µM (inactive) | > 100 µM (inactive) | 21.8 µM (inactive) | > 100 µM (inactive) | 36.9 µM (inactive) | 17.5 µM (inactive) | 31.2 µM (inactive) |  | 40 µM (inactive) | 15.8 µM (inactive) | > 100 µM (inactive) | > 100 µM (inactive) | > 100 µM (inactive) | 32.5 µM (inactive) | 56 µM (inactive) | 20.7 µM (inactive)
9 | Nc1ccn(CCNCCn2cnc3nc(N)[nH]c(=O)c32)c(=O)n1 |  | > 100 µM (inactive) | > 100 µM (inactive) |  |  | > 100 µM (inactive) | > 100 µM (inactive) | > 100 µM (inactive) | > 100 µM (inactive) |  | > 100 µM (inactive) | > 100 µM (inactive) |  | > 100 µM (inactive) | > 100 µM (inactive) | > 100 µM (inactive) | > 100 µM (inactive) | > 100 µM (inactive) | > 100 µM (inactive)
10 | COc1ccc2[nH]c3c([N+](=O)[O-])ccc(NCCN(C)C)c3/c(=N/CCN(C)C)c2c1 | 2.88 µM (inactive) |  | 1.77 µM (inactive) |  | 0.453 µM (active) | 2.58 µM (inactive) | 1.49 µM (inactive) |  |  | 2.85 µM (inactive) | 0.117 µM (active) | > 10 µM (inactive) | 7.23 µM (inactive) |  | 0.867 µM (active) | 5.08 µM (inactive) |  |  | 1.03 µM (active)
11 | C[C@@]12C(=O)OC(=O)[C@]1(C)[C@H]1CC[C@@H]2O1 [CANTHARIDIN] | 1.02 µM (active) | 1.98 µM (inactive) | 1.66 µM (inactive) |  | 7.76 µM (inactive) | 1.34 µM (inactive) | 5.07 µM (inactive) | 2.72 µM (inactive) | 2.04 µM (inactive) | 2.17 µM (inactive) | 2.61 µM (inactive) | 2.65 µM (inactive) | 2.12 µM (inactive) | 1.18 µM (inactive) | 1.53 µM (inactive) | 0.61 µM (active) | 0.935 µM (active) | 2.45 µM (inactive) | 0.484 µM (active)
12 | c1ccc(/N=C(/Nc2ccccc2)N2CCCCC2)cc1 | > 10 µM (inactive) | 38.6 µM (inactive) | 39.6 µM (inactive) | 18.7 µM (inactive) | 68.7 µM (inactive) | 50.2 µM (inactive) | > 100 µM (inactive) | 73.3 µM (inactive) |  | 74.1 µM (inactive) | 73.6 µM (inactive) | 21.6 µM (inactive) | 77.4 µM (inactive) | > 100 µM (inactive) |  | 92 µM (inactive) | 67.3 µM (inactive) | > 100 µM (inactive) | 
13 | COc1cc(/C=C2/C[C@H]3[C@@H]4CCC5=CC(=O)CC[C@]5(C)[C@H]4CC[C@]3(C)NC2=O)cc(OC)c1OC | 21 µM (inactive) | 26.2 µM (inactive) | 19.3 µM (inactive) | 23 µM (inactive) | 17.3 µM (inactive) | 26.7 µM (inactive) | 21.3 µM (inactive) | 28.4 µM (inactive) |  | 30.7 µM (inactive) |  | 20.7 µM (inactive) | 23.1 µM (inactive) | 26.4 µM (inactive) | 21.1 µM (inactive) | 11.2 µM (inactive) | 14.1 µM (inactive) | 13.1 µM (inactive) | 12.5 µM (inactive)
14 | O=C(O)C1SCCS1 | > 100 µM (inactive) | > 100 µM (inactive) | > 100 µM (inactive) |  | > 100 µM (inactive) | > 100 µM (inactive) | > 100 µM (inactive) | > 100 µM (inactive) |  | > 100 µM (inactive) | > 100 µM (inactive) | > 100 µM (inactive) | > 100 µM (inactive) | > 100 µM (inactive) | > 100 µM (inactive) | > 100 µM (inactive) |  | > 100 µM (inactive) | 
15 | CC1OC(O[C@H]2C3C=CO[C@@H](OC4OC(CO)C(O)C(O)C4O)C3[C@@]3(COC(=O)/C=C/c4ccc(O)cc4)O[C@@H]23)C(O)C(O)C1O (some centres undefined) | > 100 µM (inactive) | > 100 µM (inactive) | > 100 µM (inactive) | > 100 µM (inactive) | > 100 µM (inactive) | > 100 µM (inactive) | > 100 µM (inactive) | > 100 µM (inactive) |  | > 100 µM (inactive) |  | > 100 µM (inactive) | > 100 µM (inactive) | > 100 µM (inactive) | > 100 µM (inactive) | > 100 µM (inactive) | > 100 µM (inactive) | > 100 µM (inactive) | > 100 µM (inactive)
16 | CC(=O)/C(=C/c1ccccc1F)C(=O)c1ccccc1 | 33.6 µM (inactive) | 27.8 µM (inactive) | 33.1 µM (inactive) | 32.4 µM (inactive) | 37.2 µM (inactive) |  | 32 µM (inactive) | 25.1 µM (inactive) | > 100 µM (inactive) | 34.9 µM (inactive) |  | 25.9 µM (inactive) | 37.2 µM (inactive) | 35.2 µM (inactive) | 16.2 µM (inactive) | 91.8 µM (inactive) | 26.5 µM (inactive) | > 100 µM (inactive) | 17.4 µM (inactive)
17 | Cc1c(Cl)ccc2c1NC(=O)C2(O)CC(=O)c1ccc2ccccc2c1 (centres undefined) |  | 48.5 µM (inactive) | 39.6 µM (inactive) |  |  | > 100 µM (inactive) | 28.2 µM (inactive) | 67.1 µM (inactive) | 49.8 µM (inactive) | > 100 µM (inactive) |  | 55.8 µM (inactive) | 21.5 µM (inactive) | 58.9 µM (inactive) | > 100 µM (inactive) | 44 µM (inactive) | 24.7 µM (inactive) | > 100 µM (inactive) | 16 µM (inactive)
